Measurements taken from patent US20260356819A1, “OXOISOINDOLINYL-SUBSTITUTED […] DERIVATIVE AND USE THEREOF” (GLUETACS THERAPEUTICS (SHANGHAI) CO., LTD., priority 2023, published 2026).

What was measured:
Type in all cases: cell-based
Conditions in all cases: compounds at 50 nM and 500 nM
[1] = target: T1, IKZF1 (Homo sapiens, UniProt Q13422+Q96SW2); assay: Western blot degradation of IKZF1 in hPBMCs (24 h)
T1 construct: The supernatant was aspirated as the extracted total cell protein; endogenous in cells; host or cells: human peripheral blood mononuclear cells (hPBMCs)
Method in brief: (§1)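 In this assay, each compound was incubated with human PBMCs for 24 h at 50 nM and 500 nM. Target levels were measured by Western blot densitometry normalised to an internal control.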

[2] = target: T2, IKZF2 (Homo sapiens, UniProt Q96SW2+Q9UKS7); assay: Western blot degradation of IKZF2 in hPBMCs (24 h)
T2 construct: The supernatant was aspirated as the extracted total cell protein; endogenous in cells; host or cells: human peripheral blood mononuclear cells (hPBMCs)
T2 sequence (Q9UKS7 whole entry): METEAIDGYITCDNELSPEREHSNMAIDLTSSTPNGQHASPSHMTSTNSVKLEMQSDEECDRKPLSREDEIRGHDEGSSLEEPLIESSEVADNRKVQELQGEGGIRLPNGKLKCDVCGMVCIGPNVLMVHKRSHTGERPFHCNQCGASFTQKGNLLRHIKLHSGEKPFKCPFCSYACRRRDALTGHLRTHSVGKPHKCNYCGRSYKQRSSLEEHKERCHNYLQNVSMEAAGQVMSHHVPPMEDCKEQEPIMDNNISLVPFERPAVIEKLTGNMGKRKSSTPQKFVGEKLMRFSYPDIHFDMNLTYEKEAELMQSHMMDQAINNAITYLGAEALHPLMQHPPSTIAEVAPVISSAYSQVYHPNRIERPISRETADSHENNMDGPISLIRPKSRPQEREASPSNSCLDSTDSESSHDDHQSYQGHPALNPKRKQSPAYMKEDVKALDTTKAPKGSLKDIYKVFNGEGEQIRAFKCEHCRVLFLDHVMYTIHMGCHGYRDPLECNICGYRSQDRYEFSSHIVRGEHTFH
T2 sequence (Q96SW2 whole entry): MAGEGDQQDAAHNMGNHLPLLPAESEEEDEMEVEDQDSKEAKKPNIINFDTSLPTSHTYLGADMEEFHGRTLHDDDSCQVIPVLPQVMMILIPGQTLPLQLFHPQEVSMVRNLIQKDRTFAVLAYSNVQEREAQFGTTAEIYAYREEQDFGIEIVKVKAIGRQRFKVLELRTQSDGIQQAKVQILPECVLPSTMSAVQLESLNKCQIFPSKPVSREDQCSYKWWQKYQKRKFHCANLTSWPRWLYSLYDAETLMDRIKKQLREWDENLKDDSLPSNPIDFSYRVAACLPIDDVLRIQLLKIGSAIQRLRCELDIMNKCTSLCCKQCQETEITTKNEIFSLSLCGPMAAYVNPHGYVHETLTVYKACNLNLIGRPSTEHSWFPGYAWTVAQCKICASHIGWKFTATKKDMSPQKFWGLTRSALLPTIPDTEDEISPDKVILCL
T2 sequence (Q16531 whole entry partner): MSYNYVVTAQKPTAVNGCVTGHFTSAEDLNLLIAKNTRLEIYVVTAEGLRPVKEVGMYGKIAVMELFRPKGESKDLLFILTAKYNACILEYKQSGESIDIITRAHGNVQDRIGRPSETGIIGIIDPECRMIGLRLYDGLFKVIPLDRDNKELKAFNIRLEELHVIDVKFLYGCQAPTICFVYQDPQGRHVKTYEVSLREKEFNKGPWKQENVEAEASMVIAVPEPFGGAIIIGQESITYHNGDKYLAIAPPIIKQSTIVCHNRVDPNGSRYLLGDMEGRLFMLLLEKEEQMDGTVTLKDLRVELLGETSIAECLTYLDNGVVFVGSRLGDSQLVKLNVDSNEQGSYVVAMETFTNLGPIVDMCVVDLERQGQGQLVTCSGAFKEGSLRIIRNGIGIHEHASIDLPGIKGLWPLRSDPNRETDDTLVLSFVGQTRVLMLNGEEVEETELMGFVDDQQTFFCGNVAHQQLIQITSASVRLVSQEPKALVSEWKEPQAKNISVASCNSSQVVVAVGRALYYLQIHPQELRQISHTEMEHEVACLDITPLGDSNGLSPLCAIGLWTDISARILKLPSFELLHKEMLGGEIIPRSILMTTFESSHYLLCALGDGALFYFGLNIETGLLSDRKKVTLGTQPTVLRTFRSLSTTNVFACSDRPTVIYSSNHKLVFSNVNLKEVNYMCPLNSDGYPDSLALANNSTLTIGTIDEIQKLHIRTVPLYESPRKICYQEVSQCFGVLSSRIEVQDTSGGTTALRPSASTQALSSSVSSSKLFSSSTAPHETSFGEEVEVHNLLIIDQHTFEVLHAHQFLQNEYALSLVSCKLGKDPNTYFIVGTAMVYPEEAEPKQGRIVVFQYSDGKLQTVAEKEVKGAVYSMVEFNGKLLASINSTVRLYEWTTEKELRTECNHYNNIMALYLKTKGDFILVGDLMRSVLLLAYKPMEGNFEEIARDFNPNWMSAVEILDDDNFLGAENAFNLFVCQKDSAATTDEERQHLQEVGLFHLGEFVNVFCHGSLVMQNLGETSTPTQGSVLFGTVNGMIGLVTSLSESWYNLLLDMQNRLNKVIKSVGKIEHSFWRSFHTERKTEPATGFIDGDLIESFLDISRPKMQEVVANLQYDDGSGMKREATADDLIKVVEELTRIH
Method in brief: as §1

[3] = target: T3, WEE1 (Homo sapiens, UniProt P30291+Q96SW2); assay: Western blot degradation of WEE1 in hPBMCs (24 h)
T3 construct: The supernatant was aspirated as the extracted total cell protein; endogenous in cells; host or cells: human peripheral blood mononuclear cells (hPBMCs)
T3 sequence (P30291 whole entry): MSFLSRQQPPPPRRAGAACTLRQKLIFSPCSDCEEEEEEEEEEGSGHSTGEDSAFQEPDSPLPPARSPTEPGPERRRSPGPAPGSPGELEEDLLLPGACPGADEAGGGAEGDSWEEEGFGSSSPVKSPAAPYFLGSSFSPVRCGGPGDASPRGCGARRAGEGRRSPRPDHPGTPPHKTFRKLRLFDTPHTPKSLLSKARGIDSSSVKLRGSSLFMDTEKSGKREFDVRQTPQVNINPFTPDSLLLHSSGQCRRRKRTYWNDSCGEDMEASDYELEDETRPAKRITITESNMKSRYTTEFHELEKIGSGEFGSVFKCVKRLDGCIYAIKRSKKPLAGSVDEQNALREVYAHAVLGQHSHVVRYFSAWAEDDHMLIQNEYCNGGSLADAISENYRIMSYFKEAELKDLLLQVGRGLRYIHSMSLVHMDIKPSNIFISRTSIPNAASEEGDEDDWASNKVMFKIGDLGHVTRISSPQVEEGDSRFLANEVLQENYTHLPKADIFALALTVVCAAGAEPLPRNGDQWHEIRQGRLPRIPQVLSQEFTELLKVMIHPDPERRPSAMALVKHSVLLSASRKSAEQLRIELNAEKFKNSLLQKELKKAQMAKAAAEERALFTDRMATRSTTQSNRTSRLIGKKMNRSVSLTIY
T3 sequence (Q96SW2 whole entry): as the sequence (Q96SW2 whole entry) above
T3 sequence (Q16531 whole entry partner): as the sequence (Q16531 whole entry partner) above
Method in brief: as §1

[4] = target: T4, IKZF3 (Homo sapiens, UniProt Q96SW2+Q9UKT9); assay: Western blot degradation of IKZF3 in hPBMCs (24 h)
T4 construct: The supernatant was aspirated as the extracted total cell protein; endogenous in cells; host or cells: human peripheral blood mononuclear cells (hPBMCs)
T4 sequence (Q9UKT9 whole entry): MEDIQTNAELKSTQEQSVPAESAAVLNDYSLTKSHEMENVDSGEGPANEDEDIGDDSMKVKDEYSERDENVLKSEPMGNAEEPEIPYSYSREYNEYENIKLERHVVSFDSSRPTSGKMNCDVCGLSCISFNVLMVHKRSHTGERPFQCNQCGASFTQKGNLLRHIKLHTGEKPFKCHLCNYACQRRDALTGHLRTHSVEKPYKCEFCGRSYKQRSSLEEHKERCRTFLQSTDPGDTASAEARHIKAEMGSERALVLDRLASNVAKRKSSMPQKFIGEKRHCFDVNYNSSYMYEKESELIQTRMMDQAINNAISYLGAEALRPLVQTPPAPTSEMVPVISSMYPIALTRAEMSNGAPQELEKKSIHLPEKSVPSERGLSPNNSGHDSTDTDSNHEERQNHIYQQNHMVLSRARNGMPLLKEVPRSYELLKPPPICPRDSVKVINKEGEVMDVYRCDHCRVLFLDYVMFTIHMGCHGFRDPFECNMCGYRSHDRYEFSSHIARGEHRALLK
T4 sequence (Q96SW2 whole entry): as the sequence (Q96SW2 whole entry) above
T4 sequence (Q16531 whole entry partner): as the sequence (Q16531 whole entry partner) above
Method in brief: as §1

[5] = target: T5, CK1α (Homo sapiens, UniProt P48729+Q96SW2); assay: Western blot degradation of CK1α in hPBMCs (24 h)
T5 construct: The supernatant was aspirated as the extracted total cell protein; endogenous in cells; host or cells: human peripheral blood mononuclear cells (hPBMCs)
T5 sequence (P48729 whole entry): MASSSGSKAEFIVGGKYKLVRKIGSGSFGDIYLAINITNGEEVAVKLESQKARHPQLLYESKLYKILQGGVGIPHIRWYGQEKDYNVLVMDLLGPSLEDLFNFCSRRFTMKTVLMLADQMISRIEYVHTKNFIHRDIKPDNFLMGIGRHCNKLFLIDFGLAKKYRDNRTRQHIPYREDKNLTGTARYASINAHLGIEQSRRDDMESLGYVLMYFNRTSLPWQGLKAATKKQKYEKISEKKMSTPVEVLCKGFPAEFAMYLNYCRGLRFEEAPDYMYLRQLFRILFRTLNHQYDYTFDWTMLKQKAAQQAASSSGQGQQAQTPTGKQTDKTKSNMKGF
T5 sequence (Q96SW2 whole entry): as the sequence (Q96SW2 whole entry) above
T5 sequence (Q16531 whole entry partner): as the sequence (Q16531 whole entry partner) above
Method in brief: as §1

[6] = target: T6, GSPT1 (Homo sapiens, UniProt P15170+Q96SW2); assay: Western blot degradation of GSPT1 in hPBMCs (24 h)
T6 construct: The supernatant was aspirated as the extracted total cell protein; endogenous in cells; host or cells: human peripheral blood mononuclear cells (hPBMCs)
T6 sequence (P15170 whole entry): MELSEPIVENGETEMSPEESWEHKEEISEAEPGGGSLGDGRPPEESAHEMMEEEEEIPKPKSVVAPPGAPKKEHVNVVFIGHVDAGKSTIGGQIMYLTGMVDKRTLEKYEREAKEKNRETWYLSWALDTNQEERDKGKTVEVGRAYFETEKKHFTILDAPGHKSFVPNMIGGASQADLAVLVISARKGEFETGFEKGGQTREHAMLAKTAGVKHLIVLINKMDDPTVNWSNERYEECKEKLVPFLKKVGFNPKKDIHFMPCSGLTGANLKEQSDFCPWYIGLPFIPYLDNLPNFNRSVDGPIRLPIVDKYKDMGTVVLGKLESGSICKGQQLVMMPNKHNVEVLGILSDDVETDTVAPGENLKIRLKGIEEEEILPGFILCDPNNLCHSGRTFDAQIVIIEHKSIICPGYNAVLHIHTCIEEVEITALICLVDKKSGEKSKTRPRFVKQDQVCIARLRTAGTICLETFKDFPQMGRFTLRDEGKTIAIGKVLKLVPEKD
T6 sequence (Q96SW2 whole entry): as the sequence (Q96SW2 whole entry) above
T6 sequence (Q16531 whole entry partner): as the sequence (Q16531 whole entry partner) above
Method in brief: as §1

SMILES | IKZF1 substrate protein remaining % [1] | IKZF2 substrate protein remaining % [2] | WEE1 substrate protein remaining % [3] | IKZF3 substrate protein remaining % [4] | CK1α substrate protein remaining % [5] | GSPT1 substrate protein remaining % [6]
CC1CN(C(c2ccccc2)c2ccccc2)CC(C)N1Cc1ccc2c(c1)CN(N1CCC(=O)NC1=O)C2=O (stereo not drawn) [GT-07433, 1-(5-((4-benzhydryl-2,6-dimethylpiperazin-1-yl)methyl)-1-oxoisoindolin-2-yl)dihydropyrimidine-2,4(1H,3H)-dione] | B (80%< substrate protein remaining % ≤100%) | A (0% ≤ substrate protein remaining % ≤80%) | B (80%< substrate protein remaining % ≤100%) | B (80%< substrate protein remaining % ≤100%) | A (0% ≤ substrate protein remaining % ≤80%) | B (80%< substrate protein remaining % ≤100%)
O=C1CCN(N2C(=O)c3ccc(CN4CC5CC(C4)N5c4cccc(Cl)c4Cl)cc3C2=O)C(=O)N1 [GT-07434, 5-((6-(2,3-dichlorophenyl)-3,6-diazabicyclo[3.1.1]heptan-3-yl)methyl)-2-(2,4-dioxotetrahydropyrimidin-1(2H)-yl)isoindoline-1,3-dione] | B (80%< substrate protein remaining % ≤100%) | B (80%< substrate protein remaining % ≤100%) | B (80%< substrate protein remaining % ≤100%) | B (80%< substrate protein remaining % ≤100%) | A (0% ≤ substrate protein remaining % ≤80%) | B (80%< substrate protein remaining % ≤100%)
O=C1CCN(N2C(=O)c3ccc(CN4C[C@H]5C[C@@H]4CN5c4cccc(Cl)c4Cl)cc3C2=O)C(=O)N1 [GT-07435, 5-(((1R,4R)-5-(2,3-dichlorophenyl)-2,5-diazabicyclo[2.2.1]heptan-2-yl)methyl)-2-(2,4-dioxotetrahydropyrimidin-1(2H)-yl)isoindoline-1,3-dione] | B (80%< substrate protein remaining % ≤100%) | B (80%< substrate protein remaining % ≤100%) | B (80%< substrate protein remaining % ≤100%) | B (80%< substrate protein remaining % ≤100%) | A (0% ≤ substrate protein remaining % ≤80%) | B (80%< substrate protein remaining % ≤100%)
O=C1CCN(N2C(=O)c3ccc(CN4CC5CCC4CN5c4cccc(Cl)c4Cl)cc3C2=O)C(=O)N1 (stereo not drawn) [GT-07436, 5-((5-(2,3-dichlorophenyl)-2,5-diazabicyclo[2.2.2]octan-2-yl)methyl)-2-(2,4-dioxotetrahydropyrimidin-1(2H)-yl)isoindoline-1,3-dione] | B (80%< substrate protein remaining % ≤100%) | A (0% ≤ substrate protein remaining % ≤80%) | B (80%< substrate protein remaining % ≤100%) | B (80%< substrate protein remaining % ≤100%) | A (0% ≤ substrate protein remaining % ≤80%) | B (80%< substrate protein remaining % ≤100%)
O=C1CCN(N2C(=O)c3ccc(CN4CC5CCC(C4)N5c4cccc(Cl)c4Cl)cc3C2=O)C(=O)N1 [GT-07437, 5-((8-(2,3-dichlorophenyl)-3,8-diazabicyclo[3.2.1]octan-3-yl)methyl)-2-(2,4-dioxotetrahydropyrimidin-1(2H)-yl)isoindoline-1,3-dione] | B (80%< substrate protein remaining % ≤100%) | B (80%< substrate protein remaining % ≤100%) | A (0% ≤ substrate protein remaining % ≤80%) | B (80%< substrate protein remaining % ≤100%) | A (0% ≤ substrate protein remaining % ≤80%) | A (0% ≤ substrate protein remaining % ≤80%)
O=C1CCN(N2C(=O)c3ccc(CN4C5CCC4CN(c4cccc(Cl)c4Cl)C5)cc3C2=O)C(=O)N1 [GT-07438, 5-((3-(2,3-dichlorophenyl)-3,8-diazabicyclo[3.2.1]octan-8-yl)methyl)-2-(2,4-dioxotetrahydropyrimidin-1(2H)-yl)isoindoline-1,3-dione] | B (80%< substrate protein remaining % ≤100%) | B (80%< substrate protein remaining % ≤100%) | A (0% ≤ substrate protein remaining % ≤80%) | B (80%< substrate protein remaining % ≤100%) | A (0% ≤ substrate protein remaining % ≤80%) | A (0% ≤ substrate protein remaining % ≤80%)
O=C1CCN(N2C(=O)c3ccc(CN4CCCN(c5cccc(Cl)c5Cl)CC4)cc3C2=O)C(=O)N1 [GT-07439, 5-((4-(2,3-dichlorophenyl)-1,4-diazepan-1-yl)methyl)-2-(2,4-dioxotetrahydropyrimidin-1(2H)-yl)isoindoline-1,3-dione] | B (80%< substrate protein remaining % ≤100%) | B (80%< substrate protein remaining % ≤100%) | B (80%< substrate protein remaining % ≤100%) | B (80%< substrate protein remaining % ≤100%) | A (0% ≤ substrate protein remaining % ≤80%) | A (0% ≤ substrate protein remaining % ≤80%)
O=C1CCN(N2C(=O)c3ccc(CN4CC=C(c5ccnc(Cl)c5Cl)CC4)cc3C2=O)C(=O)N1 [GT-07440, 5-((2′,3′-dichloro-3,6-dihydro-[4,4′-bipyridin]-1(2H)-yl)methyl)-2-(2,4-dioxotetrahydropyrimidin-1(2H)-yl)isoindoline-1,3-dione] | B (80%< substrate protein remaining % ≤100%) | B (80%< substrate protein remaining % ≤100%) | A (0% ≤ substrate protein remaining % ≤80%) | B (80%< substrate protein remaining % ≤100%) | A (0% ≤ substrate protein remaining % ≤80%) | A (0% ≤ substrate protein remaining % ≤80%)
O=C1CCN(N2C(=O)c3ccc(CN4CC=C(c5ccoc5)CC4)cc3C2=O)C(=O)N1 [GT-07442, 2-(2,4-dioxotetrahydropyrimidin-1(2H)-yl)-5-((4-(furan-3-yl)-3,6-dihydropyridin-1(2H)-yl)methyl)isoindoline-1,3-dione] | B (80%< substrate protein remaining % ≤100%) | B (80%< substrate protein remaining % ≤100%) | A (0% ≤ substrate protein remaining % ≤80%) | A (0% ≤ substrate protein remaining % ≤80%) | B (80%< substrate protein remaining % ≤100%) | A (0% ≤ substrate protein remaining % ≤80%)
